Assay results from paper PMC9506480, “Synthesis and Evaluation of Antiproliferative Activity, Topoisomerase IIα Inhibition, DNA Binding and Non-Clinical Toxicity of New Acridine–Thiosemicarbazone Derivatives” (Pharmaceuticals, 2022).

How the values were obtained:
[1] = tested on: HCT116 (human colon carcinoma); experiment: Alamar blue cytotoxicity assay, HCT116; type: cell-based; details: HCT-116, 72 h incubation
Procedure: (§1) The in vitro cytotoxic activity of the compounds (Table 1) was evaluated against cancer cell lines HCT116 (human colon carcinoma), HepG2 (human hepatocellular carcinoma), B16F10 (murine melanoma carcinoma) and non-cancerous cell line MRC-5 (human lung fibroblast) using the Alamar blue assay after 72 h of incubation; doxorubicin (DOX) was used as a positive control. The unsubstituted derivatives on the acridine cores were encoded as CL, and the disubstituted derivatives as DL.
(§2) The human cancer cell lines HCT116 (colon carcinoma) and HepG2 (hepatocellular carcinoma), the mouse cancer cell line B16-F10 (melanoma), and the non-cancerous human cell line MRC-5 (lung fibroblast) were obtained from the American Type Culture Collection (ATCC, Manassas, VA, USA) and cultured according to the ATCC animal cell culture guide. All cell lines tested negative for mycoplasma using a mycoplasma stain kit.
(§3) Cell viability was measured using the Alamar blue assay, as previously described. Cells were seeded in 96-well plates for all experiments. The compounds were dissolved in dimethyl sulfoxide (DMSO, Sigma-Aldrich) and added to each well in eight serial concentrations ranging from 0.19 to 25 μg/mL. As a positive control, doxorubicin was used. After 72 h of treatment, 20 μL of resazurin (0.312 mg/mL) was added to each well. A SpectraMax 190 Micro-plate Reader was used to measure absorbances at 570 and 595 nm (Molecular Devices, Sunnyvale, CA, USA). Nonlinear regression with 95% confidence intervals (CI 95%) was used to calculate the inhibitory concentration of 50% (IC50) using GraphPad Prism software (Intuitive Software for Science; San Diego, CA, USA).

[2] = tested on: HepG2 (human hepatocellular carcinoma); experiment: Alamar blue cytotoxicity assay, HepG2; type: cell-based; details: 72 h incubation
Procedure: as §1, §2, §3

[3] = tested on: MRC-5 (human lung fibroblast); experiment: Alamar blue cytotoxicity assay, non-cancerous MRC-5; type: cell-based; details: MRC5, 72 h incubation, non-cancerous cell
Procedure: as §1, §2, §3

[4] = tested on: B16-F10 (murine melanoma); experiment: Alamar blue cytotoxicity assay, B16-F10; type: cell-based; details: Mus musculus, 72 h incubation
Procedure: as §1, §2, §3

[5] = biological target: T1, recombinant human topoisomerase IIα (p170) (Homo sapiens, UniProt P11388); experiment: Human topoisomerase IIα inhibition assay (pUC19 plasmid relaxation); type: biochemical
T1 construct: purchased Sigma-Aldrich
From the text: Several studies have shown the ability of acridines to inhibit topoisomerases, being considered the main mechanism responsible for the antiproliferative activities of this scaffold. The possibility of the new acridine derivatives to inhibit Topo IIα in its biological function of DNA double-strand relaxation was investigated in this work. This enzymatic inhibition can be accompanied by the presence of a supercoiled or relaxed DNA band, performed with the pUC19 plasmid, as shown in Figure 2. In this study, mAMSA was used as a positive inhibition control.
For testing the ability of Topo IIα inhibition, the compounds were evaluated in the DNA plasmid relaxation assay. This test consists of evaluating the Topo IIα enzyme activity in the absence and presence of the compound, followed by electrophoresis analysis, as previously described by Almeida et al. (2016). Briefly, 100 ng pUC19 DNA plasmid (Sigma-Aldrich) and 4.0 units of recombinant human (p170) topoisomerase II (Sigma-Aldrich) in relaxation buffer without or with tested compounds were incubated for 30 min at 37 °C. The tested concentrations were […], and amsacrine (mAMSA) was used as a positive control. Reactions were terminated with 1% SDS and digested with proteinase K. Then, the reaction products were analyzed by electrophoresis gel stained with ethidium bromide and photographed under UV light. Quantitative evaluation (% of enzyme inhibition by compounds about the positive control mAMSA) of the gel bands corresponding to supercoiled DNA was performed by densitometry using image-processing software (Scion Image, version Beta 4.0.2.) according to Gouveia et al. (2018).
Figure 2 Effects of mAMSA and its acridine derivatives on topoisomerase IIα activity. Effects of derivatives and positive control on the inhibition of human topoisomerase IIα. Native supercoiled pUC19 was incubated for 30 min at 37 °C with […] of human Topo IIα in the absence (lane 2) or presence of ligands at a concentration 100 μM. Inhibition of Topo IIα-induced DNA relaxation by mAMSA (lane 3) was used as a positive control. DNA samples were run on an agarose gel followed by ethidium bromide staining.

T1 sequence (P11388 whole entry): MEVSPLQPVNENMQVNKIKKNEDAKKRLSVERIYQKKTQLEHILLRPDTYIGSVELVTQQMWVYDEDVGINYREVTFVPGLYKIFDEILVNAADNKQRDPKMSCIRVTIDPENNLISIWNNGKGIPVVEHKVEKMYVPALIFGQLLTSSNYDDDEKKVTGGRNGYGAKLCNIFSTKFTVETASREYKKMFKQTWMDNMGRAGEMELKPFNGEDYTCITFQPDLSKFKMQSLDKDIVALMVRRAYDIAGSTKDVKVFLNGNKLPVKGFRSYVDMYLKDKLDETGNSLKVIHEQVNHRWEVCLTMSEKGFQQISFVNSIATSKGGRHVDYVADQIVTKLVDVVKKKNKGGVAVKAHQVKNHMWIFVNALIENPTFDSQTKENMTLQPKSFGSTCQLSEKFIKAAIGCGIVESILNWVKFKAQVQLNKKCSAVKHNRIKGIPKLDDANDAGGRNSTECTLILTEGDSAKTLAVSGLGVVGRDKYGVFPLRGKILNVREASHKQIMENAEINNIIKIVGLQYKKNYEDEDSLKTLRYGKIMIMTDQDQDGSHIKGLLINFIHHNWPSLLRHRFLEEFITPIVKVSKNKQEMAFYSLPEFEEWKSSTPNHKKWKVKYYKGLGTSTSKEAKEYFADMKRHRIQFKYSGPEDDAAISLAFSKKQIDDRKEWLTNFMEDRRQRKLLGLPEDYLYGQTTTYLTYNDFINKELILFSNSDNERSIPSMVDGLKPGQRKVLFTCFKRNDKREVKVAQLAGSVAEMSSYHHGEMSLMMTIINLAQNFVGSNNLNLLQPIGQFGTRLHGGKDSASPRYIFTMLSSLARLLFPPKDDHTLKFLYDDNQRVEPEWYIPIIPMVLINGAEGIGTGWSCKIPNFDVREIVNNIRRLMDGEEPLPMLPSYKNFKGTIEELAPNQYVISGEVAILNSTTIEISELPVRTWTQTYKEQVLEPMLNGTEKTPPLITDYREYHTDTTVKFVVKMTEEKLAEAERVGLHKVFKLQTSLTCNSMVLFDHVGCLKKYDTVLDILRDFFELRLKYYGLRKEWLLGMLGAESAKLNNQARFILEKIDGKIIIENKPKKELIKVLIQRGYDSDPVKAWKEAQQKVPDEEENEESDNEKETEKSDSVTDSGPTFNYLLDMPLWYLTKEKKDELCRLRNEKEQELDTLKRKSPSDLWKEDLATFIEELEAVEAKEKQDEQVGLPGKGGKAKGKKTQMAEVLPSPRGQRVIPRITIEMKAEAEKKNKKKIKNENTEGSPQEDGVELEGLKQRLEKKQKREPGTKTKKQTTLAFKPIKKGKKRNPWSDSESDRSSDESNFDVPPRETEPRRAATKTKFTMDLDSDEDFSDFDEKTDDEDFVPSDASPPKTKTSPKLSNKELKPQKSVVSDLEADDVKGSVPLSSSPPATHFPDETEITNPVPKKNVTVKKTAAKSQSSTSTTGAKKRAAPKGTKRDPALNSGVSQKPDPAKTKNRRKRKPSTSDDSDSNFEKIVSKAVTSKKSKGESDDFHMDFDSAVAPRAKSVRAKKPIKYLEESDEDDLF

Row | melting point | inhibition of Topo IIα enzymatic activity (in words) ([5]; 100 µM) | % of enzyme inhibition ([5]; 100 µM, densitometry, relative to positive control mAMSA, '-' = no inhibition) | inhibition at 100 µM ([5]; densitometry, relative to positive control mAMSA, '-' = no inhibition, read-out: % of enzyme inhibition) | Compound | IC50 [1] | IC50 [2] | IC50 [3] | IC50 [4]
1 | – | – | – | – | S=C(N/N=C/c1ccccc1)Nc1c2ccccc2nc2ccccc12 [CL-01, (E)-N-(acridin-9-yl)-2-benzylidenehydrazine-1-carbothioamide] | > 70 µM | > 70 µM | > 70 µM | –
2 | – | – | – | – | S=C(N/N=C/c1ccc(Cl)cc1)Nc1c2ccccc2nc2ccccc12 [CL-02, (E)-N-(acridin-9-yl)-2-(4-chlorobenzylidene)hydrazine-1-carbothioamide] | > 70 µM | > 70 µM | > 70 µM | –
3 | – | – | – | – | COc1ccc(/C=N/NC(=S)Nc2c3ccccc3nc3ccccc23)cc1 [CL-03, (E)-N-(acridin-9-yl)-2-(4-methoxybenzylidene)hydrazine-1-carbothioamide] | > 70 µM | > 70 µM | > 70 µM | > 70 µM
4 | – | – | – | – | S=C(N/N=C/c1ccc(Cl)cc1Cl)Nc1c2ccccc2nc2ccccc12 [CL-04, (E)-N-(acridin-9-yl)-2-(2,4-dichlorobenzylidene)hydrazine-1-carbothioamide] | > 60 µM | > 60 µM | > 60 µM | –
5 | – | – | – | – | O=[N+]([O-])c1ccc(/C=N/NC(=S)Nc2c3ccccc3nc3ccccc23)cc1 [CL-05, (E)-N-(acridin-9-yl)-2-(4-nitrobenzylidene)hydrazine-1-carbothioamide] | > 60 µM | > 60 µM | 26.8 µM | 22.7 µM
6 | – | – | – | – | Cc1ccc(/C=N/NC(=S)Nc2c3ccccc3nc3ccccc23)cc1 [CL-06, (E)-N-(acridin-9-yl)-2-(4-methylbenzylidene)hydrazine-1-carbothioamide] | 64.8 µM | 58.1 µM | 28 µM | 23.5 µM
7 | – | – | – | – | Oc1cccc(/C=N/NC(=S)Nc2c3ccccc3nc3ccccc23)c1 [CL-08, (E)-N-(acridin-9-yl)-2-(3-hydroxybenzylidene)hydrazine-1-carbothioamide] | 39.2 µM | 49.4 µM | 33.4 µM | 21.3 µM
8 | – | – | – | – | CN(C)c1ccc(/C=N/NC(=S)Nc2c3ccccc3nc3ccccc23)cc1 [CL-09, (E)-N-(acridin-9-yl)-2-(4-(dimethylamino)benzylidene)hydrazine-1-carbothioamide] | > 60 µM | > 60 µM | > 60 µM | –
9 | – | – | – | – | S=C(N/N=C/c1ccc(Br)cc1)Nc1c2ccccc2nc2ccccc12 [CL-10, (E)-N-(acridin-9-yl)-2-(4-bromobenzylidene)hydrazine-1-carbothioamide] | > 60 µM | > 60 µM | > 60 µM | –
10 | 144 to 145 °C | – | – | – | COc1ccc2nc3cc(Cl)ccc3c(NC(=S)N/N=C/c3ccc(Cl)cc3)c2c1 [DL-02, (E)-N-(6-chloro-2-methoxyacridin-9-yl)-2-(4-chlorobenzylidene)hydrazine-1-carbothioamide] | > 60 µM | > 60 µM | > 60 µM | 30.6 µM
11 | 148 °C | – | – | – | COc1ccc(/C=N/NC(=S)Nc2c3ccc(Cl)cc3nc3ccc(OC)cc23)cc1 [DL-03, (E)-N-(6-chloro-2-methoxyacridin-9-yl)-2-(4-methoxybenzylidene)hydrazine-1-carbothioamide] | > 60 µM | > 60 µM | > 60 µM | > 60 µM
12 | 192 to 193 °C | – | – | – | COc1ccc2nc3cc(Cl)ccc3c(NC(=S)N/N=C/c3ccc(Cl)cc3Cl)c2c1 [DL-04, (E)-N-(6-chloro-2-methoxyacridin-9-yl)-2-(2,4-dichlorobenzylidene)hydrazine-1-carbothioamide] | > 60 µM | > 60 µM | > 60 µM | > 60 µM
13 | 164 to 165 °C | – | – | – | COc1ccc2nc3cc(Cl)ccc3c(NC(=S)N/N=C/c3ccc([N+](=O)[O-])cc3)c2c1 [DL-05, (E)-N-(6-chloro-2-methoxyacridin-9-yl)-2-(4-nitrobenzylidene)hydrazine-1-carbothioamide] | > 60 µM | > 60 µM | > 60 µM | > 60 µM
14 | 157 to 158 °C | did not show inhibition capacity | – | – | COc1ccc2nc3cc(Cl)ccc3c(NC(=S)N/N=C/c3ccc(C)cc3)c2c1 [DL-06, (E)-N-(6-chloro-2-methoxyacridin-9-yl)-2-(4-methylbenzylidene)hydrazine-1-carbothioamide] | > 60 µM | 33.4 µM | > 60 µM | 26.3 µM
15 | 163 to 164 °C | able to inhibit the enzymatic activity | 74% | > 74% | COc1ccc2nc3cc(Cl)ccc3c(NC(=S)N/N=C/c3ccc(O)cc3)c2c1 [DL-07, (E)-N-(6-chloro-2-methoxyacridin-9-yl)-2-(4-hydroxybenzylidene)hydrazine-1-carbothioamide] | 28.5 µM | 24.8 µM | 23.6 µM | 21.1 µM
16 | 149 to 150 °C | – | – | – | COc1ccc2nc3cc(Cl)ccc3c(NC(=S)N/N=C/c3ccc(N(C)C)cc3)c2c1 [DL-09, (E)-N-(6-chloro-2-methoxyacridin-9-yl)-2-(4-(dimethylamino)benzylidene)hydrazine-1-carbothioamide] | > 60 µM | > 60 µM | > 60 µM | 46 µM
17 | 162 to 163 °C | – | – | – | COc1ccc2nc3cc(Cl)ccc3c(NC(=S)N/N=C/c3ccc(Br)cc3)c2c1 [DL-10, (E)-2-(4-bromobenzylidene)-N-(6-chloro-2-methoxyacridin-9-yl)hydrazine-1-carbothioamide] | > 50 µM | 20.9 µM | > 50 µM | 34.6 µM
18 | – | – | – | – | COc1cccc2c1C(=O)c1c(O)c3c(c(O)c1C2=O)C[C@@](O)(C(=O)CO)C[C@@H]3O[C@H]1C[C@H](N)[C@H](O)[C@H](C)O1 [DOX, doxorubicin, reference compound] | 0.15 µM | 0.15 µM | 2.22 µM | 0.03 µM
